Reference: patent publication US20230103965A1, “NOVEL ACTIVATORS OF THE LIPIDATING TRANSPORTER ATP BINDING CASSETTE PROTEIN TYPE 1 (AB-CA1) AND THERAPEUTIC USES THEREOF” (RAMOT AT TEL-AVIV UNIVERSITY LTD., priority 2020, published 2023)

What was measured:
Rodent Astrocytes = assay: In situ Aβ plaque digestion by apoE4 astrocytes (orthogonal assay); format: cell-based
Description: FIG. 7: Schematic representation of assay measuring in situ A$ plaque degradation by apoE3 and apoE4 astrocytes. The assay is designed to measure the ability of astrocytes to digest senile plaques from brain slides of APP mice, which is impaired in apoE4 expressing astrocytes.
FIG. 9: Activity of test compounds (HTS hits) in the plaque digestion assay. Positive control is CS-6253 (25 μg/ml). Test compound concentration is 50 μM.
In situ Aβ plaque degradation by apoE3 and apoE4 astrocytes. This assay is based on measurement of the ability of the astrocytes to clear Aβ plaques following their co-incubation with brain sections of 5×FAD mice, which contain Aβ plaques. Accordingly, 20 μm coronal frozen brain sections were prepared from 9-13-month-old 5×FAD mice using cryostat and placed on glass slides, 3-4 consecutive sections in each slide. The slides were kept at −80° C. until used. At the beginning of the experiment, the slices were incubated for 48 hr at 37° C. with apoE3 and apoE4 astrocytes (10^5 cells in 100 μl medium per slice) in the presence of 50 μM, or otherwise indicated concentrations, of the HTS hits. The slides were gently placed in round petri dishes with thick wet paper, surrounding the slides. PapPen was used to draw liquid repellent borders of the sections to avoid spillage of coating out of the slides. The slides were gently washed of all containing remains by placing them in PBS for 10 minutes, and were then fixated with 4% PFA for 10 minutes, followed by 0.1% Triton solution for 10 minutes. The slides were then incubated with blocking solution (8% Horse Serum, 0.3% Triton, 1 gr/ml BSA, 0.02% Sodium Azide in PBS) for 30 minutes after which they were immunohistochemically stained with primary anti-PAmyloid (6E10) antibody at a dilution of 1:750 in blocking solution for 1 hr at room temperature. This was then followed by washing (×5 with PBST) and incubation with the secondary antibody (Alexa Fluor® 488 donkey α-mouse IgG, A-21202 at dilution of 1:250 at room temperature for 45 minutes. Nuclei were stained with DAPI (Vektashield, Burlingame, Calif.; H-1200). Analysis of the Aβ plaque burden was performed as percentage of the area covered in plaques using the ImageJ software.
(i) Orthogonal assay which monitors the extent to which the hits can reverse the impaired ability of apoE4 astrocytes to digest Aβ senile plaques in vitro. The principle of this orthogonal assay is presented in FIGS. 7 & 8 [17], whereas the activity of the HTS hits in this assay is presented in FIG. 9.

ECD1 of ABCA1 [1] = biological target: T1, ECD1 of ABCA1 (Homo sapiens, UniProt O95477); assay: Microscale thermophoresis (MST) binding, labelled protein
T1 construct: The proteins used in these experiments were Extra-Cellular Domain 1 (ECD1) of ABCA1 and Extra-Cellular Domain 2 (ECD2); purchased Biomatick
T1 sequence (O95477 43-639 limits assumed): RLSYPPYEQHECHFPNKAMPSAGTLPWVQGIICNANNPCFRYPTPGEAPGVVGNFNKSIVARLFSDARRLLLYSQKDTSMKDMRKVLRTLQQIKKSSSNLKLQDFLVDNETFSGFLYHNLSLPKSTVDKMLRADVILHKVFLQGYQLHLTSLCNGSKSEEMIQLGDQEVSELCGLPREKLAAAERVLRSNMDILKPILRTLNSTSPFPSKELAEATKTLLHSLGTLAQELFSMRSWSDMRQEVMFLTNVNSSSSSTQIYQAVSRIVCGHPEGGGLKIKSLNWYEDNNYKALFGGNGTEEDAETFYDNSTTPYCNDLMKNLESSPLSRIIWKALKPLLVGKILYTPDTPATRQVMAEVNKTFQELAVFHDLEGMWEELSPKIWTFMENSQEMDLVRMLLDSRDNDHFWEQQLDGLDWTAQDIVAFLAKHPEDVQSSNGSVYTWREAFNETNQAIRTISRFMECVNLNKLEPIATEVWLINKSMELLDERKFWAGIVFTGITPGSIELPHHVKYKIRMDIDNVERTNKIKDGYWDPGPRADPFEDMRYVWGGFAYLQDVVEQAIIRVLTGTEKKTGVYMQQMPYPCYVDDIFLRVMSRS
Description: (§1) Microscale thermophoresis (MST) measurements. MST measurements of the binding of the HTS hits to the extracellular domain (ECD) of ABCA1 were performed by two complimentary methods utilizing either fluorescently labeled proteins or the endogenous fluorescence of unlabeled proteins. This was pursued as follows:
The buffers of protein samples were exchanged on a desalting PD-10 column to MST labelling buffer (Nanotemper Technologies, NT.115). Each protein was labeled with Alexa Fluor 650 succinimidyl-ester (Thermo Fisher Scientific) in 3-fold excess and then incubated for 1 hr in the dark at room temperature. Excess dye was removed by PD-10 desalting columns. […] Protein-compound interactions were analyzed by microscale thermophoresis. […] Hits were prepared at the highest concentration soluble in MST buffer (Nanotemper)+10% DMSO. Next, hits were diluted by 2 in 16 consecutive tubes of 10 μl per tube. Then, 10 μl of the protein were added to each tube and centrifuged in 12,000 rpm for 10 minutes. Finally, the samples were loaded to the capillaries and were inserted to the MST machine. Experiments were performed on a microMonolith NT.115 Blue/Red (NanoTemper Technologies) in duplicates. Measurements were performed in standard glass capillaries (NanoTemper Technologies). […] All dissociation constants (KD) were calculated to a binding model assuming a 1:1 stoichiometry per binding partner.
(§2) The experiments were performed with the purified extracellual domains 1 (ECD1) and 2 (ECD2) of ABCA1 [18]. Two complementary MST tests were performed, in which either the proteins were labeled with a fluorescence moiety or the endogenous fluorescence of the unlabeled proteins was monitored).

ECD1 of ABCA1 [2] = biological target: T1, ECD1 of ABCA1; assay: Microscale thermophoresis (MST) binding, label free protein; conditions: unlabelled ECD1
Description: as §1, §2

| SMILES | Plaque digestion assay (50 μM) Rodent Astrocytes (Rodent Astrocytes; Table 2) | Plaque digestion assay (50 μM) Rodent Astrocytes (Rodent Astrocytes; Table 4) | Binding to ECD1 (Labelled MST) Amplitude (ECD1 of ABCA1 [1]) | Binding to ECD1 (Label free MST) Amplitude (ECD1 of ABCA1 [2]) | Kd (ECD1 of ABCA1 [2]) | Kd (ECD1 of ABCA1 [1]) |
| --- | --- | --- | --- | --- | --- | --- |
| O=[N+]([O-])c1ccc(N2CCCCC2)c2nonc12 [Hit #7] | 93% | 93% | 22.05 a.u. | – | – | – |
| CC(C)(C)C(=O)COC(=O)c1ccccc1SCc1cc(-c2ccco2)on1 [Hit #4] | 62% | 62% | 13.63 a.u. | 16.45 a.u. | > 350 µM | 27 µM |
| Cc1nn(CC(=O)c2ccc(Br)s2)c(C)c1[N+](=O)[O-] [Hit #3] | 78% | 78% | 10.85 a.u. | 39.96 a.u. | 178 µM | 278 µM |
| CSC(SC)=C1CC/C(=C/c2ccc(N(C)C)cc2)C1=O [Hit #14] | 134% | 134% | 0 a.u. | 0 a.u. | – | – |
| C[C@]12CC[C@@H](O)CC1CCC1C2CC[C@](C)(C(=O)O)C1/C=C1/Nc2ccccc2C1=O (stereo partly shown) [Hit #12] | 105% | 105% | 9.05 a.u. | 90.25 a.u. | 314 µM | 11 µM |
